Measurements as given in patent US10987429B2, “Inhibitor of ATP-dependent cellular reverse transporters and method for producing same” (AO “TATKHIMFARMPREPARATY”, priority 2016, dated 2021).
Where a name gives a salt, the structure may show the parent alone.

Legend:
Type in all cases: cell-based, human
MCF-7 cells = experiment: Microviscosity of plasma membranes, DPHT fluorescence polarization; conditions: OEP inhibitor 8.7, 87, 870 μg/ml, doxorubicin 1 μM, cholesterol 100 μg/ml, Triton X-100 0.05%, 1 hour
Source text: (§1) A key physico-chemical characteristic of cell membranes that affects their physiological activity is microviscosity, a measure of lipid mobility in the bilayer, which plays an important role in membrane permeability and the functioning of membrane proteins. To assess the plasmalemma microviscosity, a fluorescent method is used, based on the use of a lipophilic indicator of diphenylhexatriene (DPHT), whose fluorescence depends on the cell membrane fluidity.
(§2) Cell suspension with a density of 2×10^6 cells/ml was incubated with DPHT at a final concentration of 1 μM for 30 minutes. Next, aliquots (10 μl) of OEP inhibitor solutions were added to the cell suspension using a multichannel dispenser to a final concentration of 8.7; 87 and 870 μg/ml, as well as doxorubicin at a concentration of 1 μM and its composition with an OEP inhibitor (DOX 1 μM+OEP inhibitor 8.7 μg/ml; DOX 1 μM+OEP inhibitor 87 μg/ml). […] Immediately after introducing aliquots of samples, the fluorescence polarization of DPHT was detected for 1 hour with an interval of 10 minutes.

MCF-7/Vin cells = experiment: as above; conditions: OEP inhibitor 8.7, 87, 870 μg/ml, doxorubicin 1 μM, cholesterol 100 μg/ml, Triton X-100 0.05%, 1 hour
Source text: as §1, §2

P-gp (ABCB1) = experiment: Immunoblotting of P-gp (ABCB1) expression in MCF-7 cells; conditions: 48 hours, doxorubicin 3 μM, OEP inhibitor 261 μg/ml, composition 3 μM: 261 μg/ml
Protocol: MCF-7, MCF-7-ABCC1-DsRed (with over-expression of MRP-1), MCF-7-ABCC2-BFP (with over-expression of MRP-2), MCF-7-ABCB1-GFP (with P-gp over-expression) cells in concentrations of 3×10^4 cells/cm^2 were cultured in complete DMEM nutrient medium with either doxorubicin added to a final concentration of 3 μM; or an OEP inhibitor to a final concentration of 261 μg/ml; or doxorubicin-OEP inhibitor compositions to a final concentration of 3 μM: 261 μg/ml for 48 hours at 37° C. in the atmosphere of 5% CO2. An adapted and modified ABCAM protocol (http://www.abcam.com/ps/pdf/protocols/wb-beginner.pdf) was used to study proteins by immunoblotting (Western Blot). Monoclonal antibodies to ABCB1 (Cat. No. sc-13131, Santa Cruz) were used at a dilution of 1:200. Anti-mouse antibodies conjugated with HRP—(Cat. No ab6728, Abcam) at a dilution of 1:10,000 were used as secondary. Monoclonal antibodies to β-actin (Cat. No. mAbcam 8226, Abcam) were used at a dilution of 1:2000. The results of the analysis were visualized on ChemiDoc XRS+system (Bio-Rad).

CC(C)CCC[C@@H](C)[C@H]1CC[C@H]2[C@@H]3CC=C4C[C@@H](O)CC[C@]4(C)[C@H]3CC[C@]12C [Cholesterol, cholesterol]
polarization of the fluorescence of DPHT (membrane microviscosity) (MCF-7 cells): significantly increased
polarization of the fluorescence of DPHT (membrane microviscosity) (MCF-7/Vin cells): significantly increased

COc1cccc2c1C(=O)c1c(O)c3c(c(O)c1C2=O)C[C@@](O)(C(=O)CO)C[C@@H]3O[C@H]1C[C@H](N)[C@H](O)[C@H](C)O1 [doxorubicin, Doxorubicin (DOX) hydrochloride]
polarization of the fluorescence of DPHT (membrane microviscosity) (MCF-7 cells): did not significantly change
polarization of the fluorescence of DPHT (membrane microviscosity) (MCF-7/Vin cells): did not significantly change
active glycosylated 190 kDa form of ABCB1, immunoblotting (P-gp (ABCB1)): increases the amount of the active form

Triton X-100
polarization of the fluorescence of DPHT (membrane microviscosity) (MCF-7 cells): significant decrease
polarization of the fluorescence of DPHT (membrane microviscosity) (MCF-7/Vin cells): significant decrease
